From patent US7094753B2, “Somatostatin analog and uses thereof” (Societe de Conseils de Recherches et d'Applications …, priority 2001, dated 2006)
Like-named read-outs stand apart in the source and are kept apart here. Bridge positions count the residues as written; N and C are the ends. Square brackets hold non-standard residues; d marks the D form. Peptide text beside a SMILES is read from it.

Tests used:
[1] = tested on: GH-secreting adenoma cells; details: for suppression of GH: 10 nM; for mean maximal GH suppression: at nanomolar concentrations; for EC50: read-out: EC50 of inhibition of GH release
Experimental: (§1) GH and PRL were measured using commercial immunoradiometric kits (Immunotech, Marseilles, France). Normal GH values ranged from 0.2–2.4 μg/L; normal PRL values ranged from 1–24 μg/L in women and from 1–17 μg/L in men. After an ethanol-acid extraction, the plasma IGF-I assay was performed using the IGF-I RIA kit from Nichols Institute Diagnostics (San Juan Capistrano, Calif.).
(§2) A portion of each tumor obtained at surgery was dissociated by mechanical and enzymatic methods. […] Tumor cells were initially cultured in DMEM supplemented with 10% FCS for 3 days. On day 3, the cells were washed and plated in multiwell culture dishes (Costar 3524, Brumath, France) coated with extracellular matrix from bovine endothelial corneal cells as previously described (Jaquet P, et al., 1985, Horm Res. 22:153–163.) at a density of 2×10^4 cells/well. When they were attached to the matrix on days 5–8, depending on the culture, the medium was removed and replaced with DMEM supplemented with 2% FCS, antibiotics, transferrin, and selenium as previously described (Jaquet P, et al., 1985, Horm Res. 22:153–163.). […] Each drug concentration was tested in quadruplicate.
(§3) SRIF-14 was purchased from Sigma (Saint-Quentin Fallavier, France). […] The native SRIF and SRIF analogs were dissolved in 0.01 mol/L acetic acid containing 0.1% purified serum albumin (Life Technologies, Inc., Cergy-Pontoise, France). The drugs were stored at −80 C. as 10^−3 mol/L solutions. For each experiment, fresh working solutions were prepared from a new aliquot.
(§4) The results are presented as the mean±SEM. Statistical significance between two unpaired groups was determined by the Mann-Whitney test. To measure the strength of association between the pairs of variables without specifying dependencies, Spearman order correlation's were used. P<0.05 was considered significant for all tests.

[2] = tested on: mixed GH-/PRL-secreting tumor cells; test: Inhibition of PRL release in mixed GH-/PRL-secreting tumor cell cultures; type: cell-based, human; details: five tumor cell cultures (A1, A2, A7, A9, A10); for mean maximal PRL suppression: at 10 nmol/L
Experimental: as §1, §2, §3, §4

GH = test: Acute octreotide test in acromegalic patients (GH decrease); type: in vivo, human; details: for mean GH suppression: single 200 μg injection, GH 2–6 h after injection vs basal; for Percent inhibition vs. GH basal value: 2–6 h after 200 μg sc; for GH under octreotide: mean GH 2–6 h after 200 μg sc
Experimental: Ten acromegalic patients (seven women and three men), aged 26–62 years, presenting with macroadenoma were studied. Their endocrine status and the neuroradiological characterization of the pituitary adenomas were documented before treatment. Basal GH levels were the mean of three random samples obtained between 0800–0900 h. The basal IGF-I value was evaluated under fasting conditions between 0800–0900 h. […] All patients underwent transsphenoidal surgery.
as §1

[3] = octreotide partially responsive tumors (A6–A10)
[4] = octreotide-sensitive tumors (A1–A5)

Compound: CC[C@@H]1NC(=O)[C@H](CCCCN)NC(=O)[C@@H](Cc2c[nH]c3ccccc23)NC(=O)[C@H](Cc2ccc(O)cc2)NC(=O)[C@@H](NC(=O)[C@@H](Cc2ccccc2)NS(=O)(=O)CCN2CCN(CCO)CC2)CSSC[C@@H](C(=O)N[C@H](C(N)=O)[C@@H](C)O)NC1=O [Compound A]
- maximal GH suppression [1, 3]: 31±5%
- maximal mean GH suppression ([1]; octreotide-sensitive tumors (A1–A5), at 0.1 nmol/L): 41±7%
- mean maximal PRL inhibition [2]: 34±5%

Compound: C[C@@H](O)[C@@H]1NC(=O)[C@H](CCCCN)NC(=O)[C@@H](Cc2c[nH]c3ccccc23)NC(=O)[C@H](Cc2ccccc2)NC(=O)[C@H](Cc2ccccc2)NC(=O)[C@@H](N)CSSC[C@@H](C(N)=O)NC(=O)[C@H](Cc2ccccc2)NC1=O [Compound B] (H-CFF[dW]KTFC-NH2; disulfide 1-8)
- maximal GH suppression [1, 3]: 38±7%
- concentration producing maximal inhibition of GH release [1, 4]: 10 nmol/L
- mean maximal PRL inhibition [2]: 52±6%

Compound: CC(C)[C@@H]1NC(=O)[C@H](CCCCN)NC(=O)[C@@H](Cc2c[nH]c3ccccc23)NC(=O)[C@H](Cc2ccc(O)c(I)c2)NC(=O)[C@@H](NC(=O)[C@H](N)Cc2ccccc2)CSSC[C@@H](C(=O)N[C@H](C(N)=O)[C@@H](C)O)NC1=O [Formula (I), D-Phe-c(Cys-Tyr(I)-D-Trp-Lys-Val-Cys)-Thr-NH2]
- maximal GH suppression [1, 3]: 44±5%
- suppression of GH [1, 3]: 44±5%
- mean maximal GH suppression [1, 4]: 44±5%
- mean maximal PRL suppression [2]: 51±5%

Compound: C[C@H](N)C(=O)NCC(=O)N[C@H]1CSSC[C@@H](C(=O)O)NC(=O)[C@H](CO)NC(=O)[C@H]([C@@H](C)O)NC(=O)[C@H](Cc2ccccc2)NC(=O)[C@H]([C@@H](C)O)NC(=O)[C@H](CCCCN)NC(=O)[C@H](Cc2c[nH]c3ccccc23)NC(=O)[C@H](Cc2ccccc2)NC(=O)[C@H](Cc2ccccc2)NC(=O)[C@H](CC(N)=O)NC(=O)[C@H](CCCCN)NC1=O [Somatostatin-14]
- maximal GH suppression compared with Compound B [1, 3]: equally achieved
- dose-related inhibition of PRL release compared with Compound B [2]: similarly achieved

Compound: Octreotide
- suppression of GH [1, 3]: 26±7%
- mean maximal GH suppression [1, 4]: 36±7%
- EC50 ([1]; cultures from the 5 octreotide partially responsive tumors (A6–A10)): 200 ± 145 pM
- EC50 ([1]; cultures from the 5 octreotide-sensitive tumors (A1–A5), 8-h period): 55 ± 15 pM
- mean maximal PRL suppression [2]: 34±7%
- mean GH suppression (GH; five full octreotide responders): 79±7%
- mean GH suppression (GH; five partial octreotide responders): 33±6%
- Percent inhibition vs. GH basal value (GH; patient A1): 91%
- GH under octreotide (GH; patient A1, basal 11): 1 µg/L
- Percent inhibition vs. GH basal value (GH; patient A2): 82%
- GH under octreotide (GH; patient A2, basal 22): 4 µg/L
- Percent inhibition vs. GH basal value (GH; patient A3): 76%
- GH under octreotide (GH; patient A3, basal 109): 26 µg/L
- Percent inhibition vs. GH basal value (GH; patient A4): 75%
- GH under octreotide (GH; patient A4, basal 141): 36 µg/L
- Percent inhibition vs. GH basal value (GH; patient A5): 75%
- GH under octreotide (GH; patient A5, basal 47): 12 µg/L
- Percent inhibition vs. GH basal value (GH; patient A6): 40%
- GH under octreotide (GH; patient A6, basal 5): 3 µg/L
- Percent inhibition vs. GH basal value (GH; patient A7): 39%
- GH under octreotide (GH; patient A7, basal 26): 15.8 µg/L
- Percent inhibition vs. GH basal value (GH; patient A8): 37%
- GH under octreotide (GH; patient A8, basal 13): 8.2 µg/L
- Percent inhibition vs. GH basal value (GH; patient A9): 29%
- GH under octreotide (GH; patient A9, basal 141): 100 µg/L
- Percent inhibition vs. GH basal value (GH; patient A10): 23%
- GH under octreotide (GH; patient A10, basal 195): 151 µg/L
